Data set [1] is described as follows: Solubility of the compounds, molybdenum blue method, UV/Vis 880 nm (Example 6). The format is physicochemical. Conditions: saturated aqueous solution. The source says: The low solubility is achieved by using long carbon chain(s) or aromatic ring(s) in the bisphosphonate structure I. Advantageously, compound I contains 7-16 carbon atoms either in chain, branched chain or cyclic structure or in combination of these structural units between A and X, and preferably in the chain starting from the P-C-P bridging carbon and the number of heteroatomic functional groups excluding the phosphorous functionalities are limited to two or three groups. The solubility decreases even more if compound I contains functional groups which are capable to form twitter ions with each other. Typical examples of twitter ions are acids (e.g., —CO2H or —PO3H2) and bases (amines) in the same molecule. Solubilities of selected bisphosphonate compounds I were determined with UV/Vis spectrophotometer at 880 nm using molybdenum blue method (Finnish Standard Association SFS 3026: Determination of phosphate in water. Finnish Standard Association SFS, Helsinki Finland, 1986).
Solubilities of selected compounds were determined with UV/Vis Spectrophotometer at 880 nm using molybdenum blue method from saturated aqueous samples solutions (Finnish Standard Association SFS 3026: Determination of phosphate in water. Finnish Standard Association SFS, Helsinki Finland, 1986).

A short description of data set [2]: Concentration of diluted samples, recovery after 1:10000 dilution (Example 24). Conditions: 1e 1 g in 10 liters. How it is done:
A water solution (100 ml) containing 100 ppb of desired metallic element prepared from Merch Titrisol® standard was diluted to 10 liters of water, pH was adjusted and the mixture was treated with 1e (1 g) for 24 h with stirring. After filtration trough sintered disc (porosity G-4), the solids were decomposed by using microware digestion, the residue was dilution to known volume of water (10 ml) and metal concentrations were determined by using AAS method.

Read-outs that look alike come from different tables or passages of the source.

As for `NCCCCCCCCCCCC(O)(P(=O)(O)O)P(=O)(O)O` [Compound 1e, 12-Amino-1-hydroxydodecane-1,1-diyldiphosphonic acid], the solubility was 31 mg/L in data set [1] (read-out: mg/l (solubility calculated for whole molecule)) and 5 mg/L in data set [1] (read-out: mg/l P (solubility calculated as elemental phosphorus)). The “Yield [%] (recovery)” value was found to be 98% in data set [2] (Cd^2+, pH 3.6); 98% in data set [2] (Cr^3+, pH 3.0); 97% in data set [2] (Cr^3+, pH 7.0); 93% in data set [2] (Hg^2+, pH 2.0); 94% in data set [2] (Hg^2+, pH 4.9); 94% in data set [2] (Hg^2+, pH 9.2). Also, the “Yield [%] (recovery)” value in data set [2] (Hg^+, pH 2.0) was determined as 89%; in data set [2] (Hg^+, pH 5.0), 92%; in data set [2] (Hg^+, pH 9.2), 92%; in data set [2] (Pb^2+, pH 3.2) it was 100%; in data set [2] (Pb^2+, pH 5.0) it was 85%; in data set [2] (UO2^2+, pH 3.0), 87%.

The record behind these values is US20140263071A1, “METHOD FOR COLLECTING METALS” (CHEMEC OY AB, priority 2011, published 2014).
